Positions count from the first letter of the chain named. Several values for one entry are separate records, joined by “and”; a condition that tells them apart may be missing. Identical values can stand only once. Entries after “also recorded” stand apart in the source; their conditions may differ. Like-named read-outs stand apart in the source and are kept apart here.
Assays:
[1] = biological target: T1, DrOTOP1 (Danio rerio, UniProt Q7ZWK8); experiment: Whole-cell patch-clamp, inhibition of acid-evoked currents, WT DrOTOP1 expressed in HEK-293 cells; format: cell-based, zebrafish (Danio rerio); details: for Inhibition of pH 5.5-induced currents, screen 1 / Inhibition of pH 5.5-induced currents, screen 2: 200 µM compound; for Inhibition of pH 5.5-induced currents, screen 1 / inhibition at 200 µM / Inhibition of pH 5.5-induced currents, screen 2: HEK-293 cells expressing DrOTOP1, Vm -80 mV, values of single cells; for Inhibition of pH 5.5-induced currents, screen 1: 200 µM; for inhibition at 200 µM: HEK293, pH 5.5, 200 µM compound
T1 construct: A previously generated codon-optimized full-length DrOTOP1[8]; (UniProt: Q7ZWK8) construct; expressed in transfected cells; host or cells: HEK-293 (CRL-1573, ATCC)
T1 sequence (Q7ZWK8 1-586): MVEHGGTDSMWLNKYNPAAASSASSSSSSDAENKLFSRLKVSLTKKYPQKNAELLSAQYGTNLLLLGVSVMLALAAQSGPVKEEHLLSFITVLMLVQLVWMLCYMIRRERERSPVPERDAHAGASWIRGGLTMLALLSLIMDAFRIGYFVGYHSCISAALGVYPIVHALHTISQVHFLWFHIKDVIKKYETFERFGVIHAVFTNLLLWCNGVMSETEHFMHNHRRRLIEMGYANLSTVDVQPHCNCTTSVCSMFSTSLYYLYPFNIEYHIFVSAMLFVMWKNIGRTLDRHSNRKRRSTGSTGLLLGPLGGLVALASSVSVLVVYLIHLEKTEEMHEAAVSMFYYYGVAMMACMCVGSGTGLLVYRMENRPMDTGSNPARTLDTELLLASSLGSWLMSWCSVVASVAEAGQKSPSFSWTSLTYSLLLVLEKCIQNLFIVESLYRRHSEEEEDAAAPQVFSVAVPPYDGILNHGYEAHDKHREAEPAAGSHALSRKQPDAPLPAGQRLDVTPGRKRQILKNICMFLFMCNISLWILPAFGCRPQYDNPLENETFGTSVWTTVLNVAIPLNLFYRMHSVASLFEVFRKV
Description: The 50 molecules identified were individually tested by whole-cell patch-clamp electrophysiology for effects on DrOTOP1 expressed in human embryonic kidney (HEK)−293 cells. […] This approach enabled us to observe the on- and off-responses of each compound. To quantify the effect of each compound, we compared the current magnitude during compound application immediately before wash-off, to the peak inward current following its removal (Supplementary Fig. 2A).
(§1) HEK-293 cells (CRL-1573, ATCC) were cultured in DMEM (Thermofisher 11995073) containing 10% fetal bovine serum (Life Technology 16000044) and Penicillin-Streptomycin (100 I.U./mL) and (100 µg/mL), respectively. Cells were transfected with WT DrOTOP1 or mutant DrOTOP1 channels in 35 mm petri dishes, with ~ 500 ng DNA and 2 μL TransIT-LT1 transfection reagent (Mirus Bio Corporation, Cat # MIR2300) following the manufacturer’s protocol. All constructs were subcloned into a pcDNA3.1 vector that adds an N-terminal fusion tag consisting of an octahistidine tag followed by eGFP, a Gly-Thr-Gly-Thr linker and a 3C protease cleavage site ([…]) followed by WT DrOTOP1, WT mOTOP1, WT hOTOP1, or mutated DrOTOP1. Point mutations were generated via In-Fusion Cloning (Takara) using single-stranded DNA primers generated through IDT and sequence confirmed by Sanger sequencing (GeneWiz).
(§2) Whole-cell patch-clamp recording was performed as previously described[6],[22],[25]. Recordings were made with an Axopatch 200B amplifier, digitized with a Digidata 1322a 16-bit data acquisition system, acquired with pClamp 8.2 and analyzed with Clampfit 10 (Molecular Devices). Recordings were sampled at 5 kHz and filtered at 1 kHz. Patch Pipettes with resistance of […] were fabricated from borosilicate glass, and only recordings with a giga-Ohm seal were used in analysis. Membrane potential was held at −80 mV for the duration of recordings. At the beginning of recordings and between, cells were washed with Tyrode’s solution (see below). Once a giga-Ohm seal was reached, cells were lifted and placed in front of microcapillary tubes controlled by a Fast-Step perfusion system (Warner Instruments) so that extracellular solutions could be rapidly exchanged during each experiment.
Standard Tyrode’s solution consisted of 145 mM NaCl, 5 mM KCl, MgCl2, 2 mM CaCl2, 20 mM D-Glucose, and 10 mM HEPES (for pH 7.4). All other extracellular patch-clamp solutions contained 160 mM NMDG-Cl, 2 mM CaCl2, and the following buffers: 10 mM HEPES (for pH 7.4), 10 mM MES (for pH 6.5-5.5), 10 mM CHES for pH 10, and 10 mM HomoPIPES for (pH 5.0). pH adjusted with HCl. […] The pipette contained intracellular solution made up of 120 mM Cs-aspartate, 15 mM CsCl, 2 mM Mg-ATP, 5 mM EGTA, 2.4 mM CaCl2 (100 nM free Ca^2+), and 10 mM HEPES with a pH of 7.3. All extracellular solution osmolarity was adjusted to 300 mOsm and intracellular osmolarity was adjusted to 290 mOsm.
All data are presented as mean ± SEM unless otherwise noted, and each data point represents an independent replicant. Inhibition of compounds was quantified as ((I2peak-I1)/(I2peak))*100, where I1 is the current immediately before wash-off and I2peak is the maximum recovered current (Supplementary Fig. 2). Hill coefficients were determined by the following equation: Y = Bmax*X^h/(Kd^h + X^h).

[2] = biological target: T2, DrOTOP1 G130W (Danio rerio, UniProt Q7ZWK8, G130W); experiment: Whole-cell patch-clamp, inhibition of acid-evoked currents, DrOTOP1 G130W (outer site); format: cell-based, zebrafish (Danio rerio); details: DrOTOP1 G130W
T2 construct: A previously generated codon-optimized full-length DrOTOP1[8]; (UniProt: Q7ZWK8) construct; expressed in transfected cells; host or cells: HEK-293 (CRL-1573, ATCC)
T2 sequence (Q7ZWK8 1-586 G130W): T1 sequence (Q7ZWK8 1-586) with G130W
Description: To functionally test the significance of the two binding sites identified by cryo-EM, we generated point mutations of DrOTOP1 using the binding poses and conformational changes observed in DrOTOP1_C2.2 to guide our mutations. As per the binding pose that best fits our cryo-EM density, C2.2 forms the following interactions in the outer site: hydrophobic packing against many non-polar residues W126, G130, M133, L134, F271, F570, and M573, and π-stacking with W532 (Fig. 5A). In addition, C2.2 could potentially form H-bonds with E267, if the sidechain is protonated or a water bridge is present, and with H574 if it moves closer (Fig. 5A). Likewise, C2.36 presents a heterocyclic nitrogen that can potentially form a H-bond with E267, similarly, provided a protonation or water bridge is present (Fig. 5B). In addition, C2.36 forms a T-shaped π-stacking interaction with H574, whose sidechain has rotated 90 degrees (compared to DrOTOP1_apo), presumably to accommodate the interaction (Fig. 5B). Considering other inhibitors discovered from the second round of screening, many contain functional groups like the carbonyl groups of Group 1 molecules and the heterocyclic nitrogen atoms of Group 2 molecules (Supplementary Fig. 3E), that can potentially form similar H-bonds with E267 as C2.2 and C2.36, assuming the binding modes are similar. In the central site, C2.2 binds with the following interactions: hydrophobic packing with residues V201, F271, A274, V278, and A388, π-stacking with F277, and H-bonding with E384 (Fig. 5C).
Each non-aromatic residue was mutated to tryptophan, which was expected to cause steric occlusion. […] This seemed appropriate given the small number of H-bonds in these pockets, the ambiguity of how the inhibitors fit the density, and the prevalence of hydrophobic packing interactions (Fig. 5A–C).
as §1, §2
Standard Tyrode’s solution consisted of 145 mM NaCl, 5 mM KCl, MgCl2, 2 mM CaCl2, 20 mM D-Glucose, and 10 mM HEPES (for pH 7.4). All other extracellular patch-clamp solutions contained 160 mM NMDG-Cl, 2 mM CaCl2, and the following buffers: 10 mM HEPES (for pH 7.4), 10 mM MES (for pH 6.5-5.5), 10 mM CHES for pH 10, and 10 mM HomoPIPES for (pH 5.0). pH adjusted with HCl. […]

[3] = FDA 1-3 = FDA-approved drugs, read-out: Inhibition of pH 5.5-induced currents, screen 2

**Q.** With `COCc1nc(-c2nc3c([nH]2)CCCNC3=O)no1` [C42] as the compound, how does the “Inhibition of pH 5.5-induced currents, screen 1” value (shortened to “Inhibition … screen 1”) [1] read?
**A.** 1.242% and 3.465% and 1.504%

**Q.** With `Cc1csc(NC(=O)c2nc(C3CC3)n[nH]2)n1` [C38] as the compound, how does the “Inhibition … screen 1” value [1] read?
**A.** 0.5534% and 0.7746%

**Q.** And the inhibition at 200 µM ([1]; read-out: Inhibition of pH 5.5-induced currents, screen 1)?
**A.** 0.922%

**Q.** `Cc1nc(=NCCCc2ncc[nH]2)c2c([nH]1)COc1ccccc1C2` [C2.51] was tested. Which “Inhibition of pH 5.5-induced currents, screen 2” value ([1]; FDA 1-3 = FDA-approved drugs, listed as 51, 200 µM) did it give?
**A.** 16.6082% and 21.5548%

**Q.** And the inhibition at 200 µM [1, 3]?
**A.** 26.3%

**Q.** How did the “Inhibition … screen 1” value [1] turn out when `Cc1noc(-c2csc(Cc3ccccc3)n2)n1` [C39] was run?
**A.** 1.199% and 1.966% and 0.3901%

**Q.** Which results are given for `CC(=O)O[C@H]1Cc2ccccc2N(C(N)=O)c2ccccc21` [eslicarbazepine acetate, reference compound]?
**A.** Inhibition of pH 5.5-induced currents, screen 2 ([1]; FDA 1-3 = FDA-approved drugs, listed as FDA 2, 200 µM): 4.01% and 3.687%; inhibition at 200 µM [1, 3]: 3.48%

**Q.** Which results are given for `Oc1ccc(-c2nnc3n2Cc2ccccc2OC3)cc1` [C2.36]?
**A.** Kinetics and reversibility of inhibition ([1]; WT DrOTOP1, pH 5.5 stimulus): uniquely slow off-rate; also recorded: slowly inhibited; also recorded: poorly reversible; Wash-off compared to WT [2]: faster wash-off; Inhibition (Fig. 5N) ([2]; pH 5.5, 100 µM C2.36 according to legend of Fig. 5M, N, single cells): significantly less inhibition

**Q.** `Cc1n[nH]c(CNC(=O)c2cnc3ccccc3n2)n1` [C44] was tested. Which “Inhibition … screen 1” value [1] did it give?
**A.** 3.035% and 1.397% and 1.665%

Source: paper PMC12549899 (Nature Communications, 2025)
